The structures appear in SMILES notation.

The record followed here is US4061740A, “Liquid compositions containing a polyethylene glycol safener and an organophosphorus pesticide” (priority 1976, dated 1977).

This assay concerns Root-knot Nematode (Meloidogyne incognita). Description: Control of root-knot nematode on tomato in the greenhouse. It counts as in vivo, Meloidogyne incognita (on tomato, Lycopersicon esculentum). The source says:
Evaluation of a liquid formulation consisting of a solution of 2-diethoxyphosphinylimino-1,3-dithietane in polyethylene glycol for the control of root-knot nematode (Meloidogyne incognita) on tomato in the greenhouse.
1. 2-Diethoxyphosphinylimino-1,3-dithietane, 91% real. (Active ingredient; a.i.)
2. Liquid formulation consisting of 20.9%, by weight, of a.i. and 79.1%, by weight, of polyethylene glycol of an average molecular weight of 400.
Tomato (Lycopersicon esculentum; Cv. Bonny Best).
Root-knot Nematode (Meloidogyne incognita) inoculum. [formula] 2-Diethoxyphosphinylimino-1,3-dithietane at 0.75 mg, 1.5 mg and 3.0 mg/liter of soil. Polyethylene glycol blank at 14.4 mg/liter of soil.
All compounds are made up as acetone solutions. One liter of moist potting soil is placed in a suitable stainless steel beaker. One ml of candidate solution is distributed, drop by drop, over the surface of the soil. The beaker is then capped and placed on an off-center rotary mixer and mixed for 2 minutes (about 60 revolutions). After mixing, the soil is divided between two 0.5 liter paper cups by filling the cups half full of soil, then distributing 25 ml root-knot nematode inoculum on the soil and filling the remainder of the container with treated soil. Seedling tomato plants are transplanted into the cups of soil the same day, watered and removed to the greenhouse. After about 4 weeks, the tomato plants are carefully removed from the containers, the soil washed from the roots, and the roots are then examined for nematode galling.
The roots are indexed for galling by the following system: […]

Turning to `CCOP(=O)(N=C1SCS1)OCC` [Formulation 1, 2-Diethoxyphosphinylimino-1,3-dithietane], the “Root-knot index, Average of 3 Replicates” value turned out to be 7.0 (0.75 mg/l active ingredient) and 4.7 (1.5 mg/l active ingredient). For the same molecule, the Root-knot index (0.75 mg/l active ingredient, replicate 1) is recorded as 8 (61-70% of roots galled); the Root-knot index (0.75 mg/l active ingredient, replicate 2) was 8 (61-70% of roots galled); the Root-knot index (0.75 mg/l active ingredient, replicate 3) was 5 (31-40% of roots galled); the Root-knot index (1.5 mg/l active ingredient, replicate 1) is reported as 6 (41-50% of roots galled); the Root-knot index (1.5 mg/l active ingredient, replicate 2) was 6 (41-50% of roots galled); the Root-knot index (1.5 mg/l active ingredient, replicate 3) is reported as 2 (6-10% of roots galled). Also, the Root-knot index runs as follows: (3.0 mg/l active ingredient, replicate 1) 0; (3.0 mg/l active ingredient, replicate 2) 0; (3.0 mg/l active ingredient, replicate 3) “T (less than 1% of roots with galls.)”. For the same molecule, the “protection of the tomato roots from the root-knot nematode” value by setting is: (0.75 mg/l of soil) “poor”; (1.5 mg/l of soil) “poor”; (3.0 mg/l of soil) “excellent”.
